Literature values in patent US20130202706A1 (DRUGGABILITY TECHNOLOGIES IP HOLDCO (JERSEY) LTD., priority 2010, published 2013).

Details: oral administration

CC(C)c1c(C(=O)Nc2ccccc2)c(-c2ccccc2)c(-c2ccc(F)cc2)n1CC[C@@H](O)C[C@@H](O)CC(=O)O [Atorvastatin]
systemic availability of HMG-CoA reductase inhibitory activity: approximately 30%
